Where two headings read alike, the source gives them in different places.

This is an account of results in patent US20100003332A1, “Process For Preparing Powder Comprising Nanoparticles of Sparingly Soluble Drug” (Amorepacific Corporation, priority 2006, published 2010).

Data set [1] is described as follows: Bioavailability test: blood drug concentration after oral administration of suspensions to rats. The following applies: rat, suspension in distilled water, male rats fasted for 12 hours. Type of data set: in vivo. As for the experimental part:
In order to investigate the bioavailability of the powder according to the present invention, cilostazol powder prepared in Example 6 and unprocessed cilostazole as a control group (average particle size: 3 to 5 μm, Dongwoo Co., Ltd.) were suspended in distilled water, respectively. The suspensions having equivalent amounts of cilostazole were each orally administered to three male rats fasted for 12 hours. Blood samples were taken from the ophthalmic vein of the rats immediately after the administration, and 0.5, 1, 2, 4 and 7 hours after the administration to determined the blood drug concentration changes with time. Also the maximum blood concentration (Cmax, μg/ml) and the area under the blood drug concentration-time curve (AUC, μg*hr/ml) were calculated, and the results are shown in Table 8.

Data set [2] can be described thus: Particle size of active ingredient (cilostazol, fenofibrate, itraconazole) powders redispersed in distilled water, laser scattering particle size analyzer. Type of data set: physicochemical. The settings on record: powder redispersed in aqueous solution, surface stabilizer HPC, dispersion agent SUCROSE. As for the experimental part:
1.2 g of each of the active ingredient, 0.2 g of hydroxypropyl cellulose and 1.2 g of sucrose were added to 6.1 g of distilled water containing a saturated solution of sucrose, an appropriate amount of zirconia bead having the average particle size of 1 mm were added thereto, and the mixture was roll ground at a rate of 108 rpm for 5 days. The slurry mixture thus obtained was screened to remove the beads, and the residue was high-pressure filtered (pressure: 640 mmHg) using the sound pressure, followed by vacuum drying to obtain powders.

Data set [3] can be described thus: Particle size of cilostazol (lactose/SLS ratio) after redispersion of slurry or dried powder in distilled water, laser scattering particle size analyzer. Type of data set: physicochemical. On the procedure:
0.45 g of cilostazol (Dongwoo Co., Ltd.) and 0.15 g of hydroxypropyl cellulose were added to 5.1 ml of the saturated aqueous solution of lactose. […] The slurry mixture thus obtained was high-pressure filtered (pressure: 640 mmHg) using a sound pressure and freeze dried for 1 day to obtain powders.

Experiment in data set [4]: as above
It is filed as physicochemical. The settings on record: Lactose 225 g, SLS 225 g.

The procedure of data set [5]: 0.15 g of naproxen (TCI Chem) having an average particle size of 3 to 10 μm, 0.15 g of lactose and 0.03 g of hydroxypropy cellulose (HPC) were added to 3.4 ml of a saturated aqueous solution of lactose, and the mixture was wet ground using an oscillating mill at the room temperature for 30 minutes. The slurry mixture thus obtained was centrifuged at 4° C., 15,000 rpm for 30 minutes, and the residue in the bottom layer was vacuum dried for 24 hours to obtain a powder.
In the above process, the averaged particle size of naproxen particles was measured for 1) a test solution obtained by redispering 0.02 ml of the slurry mixture obtained after wet grinding in 10 ml of distilled water, and 2) an another test solution obtained by redispersing 0.01 g of the dried powder in 8 ml of distilled water, by using a laser scattering particle size analyzer (LA-910, Horiba). The redispersion was conducted by shaking the mixture with a hand.
Additional powders were prepared by repeating the above-mentioned procedure except for using sucrose, mannitol, trehalose, sorbitol and xylitol, respectively, instead of lactose, and naproxen particle sizes were measured by the same procedure.

Data set [6] is described as follows: Particle size of tacrolimus in redispersed powder with and without ultrasonic irradiation, laser scattering particle size analyzer. The following applies: lactose. Type of data set: physicochemical. On the procedure:
0.01 g of each of the powders thus obtained was redispersed using an ultrasonic irradiation (frequency: 39 kHz). The particle of the tacrolimus was measured by using a laser scattering particle size analyzer (LA0910, Horiba) for each of the test solution with and without the ultrasonic irradiation, and the results are shown in Table 4.

The mark [7] stands for this setting: drying powder redispersed, Lactose 90 g, SLS 360 g.
The mark [8] stands for this setting: drying powder redispersed, Lactose 360 g, SLS 90 g.
The mark [9] stands for this setting: slurry mixture redispersed after wet grinding, Lactose 90 g, SLS 360 g.
Setting [10] is: slurry mixture redispersed after wet grinding, Lactose 225 g, SLS 225 g.
The mark [11] stands for this setting: slurry mixture redispersed after wet grinding, Lactose 360 g, SLS 90 g.
[12] abbreviates: HPC, amount of lactose 20% by weight of active ingredient.
[13] abbreviates: HPC, amount of lactose 60% by weight of active ingredient.
Where [14] appears, read: HPC, amount of lactose 100% by weight of active ingredient.
[15] abbreviates: HPC, amount of lactose 140% by weight of active ingredient.
Setting [16] is: HPC, amount of lactose 180% by weight of active ingredient.
Where [17] appears, read: dispersion agent Lactose, surface stabilizer PVP 10,000.
Where [18] appears, read: dispersion agent Lactose, surface stabilizer PVP 29,000.
Where [19] appears, read: dispersion agent Lactose, surface stabilizer PVP 55,000.
Setting [20] is: dispersion agent Lactose, surface stabilizer PVP 130,000.
[21] abbreviates: dried powder redispersed in distilled water, surface stabilizer HPC, dispersion agent Lactose.
Where [22] appears, read: dried powder redispersed, HPC, dispersion agent Mannitol.
Where [23] appears, read: dried powder redispersed, HPC, dispersion agent Sorbitol.
Setting [24] is: dried powder redispersed, HPC, dispersion agent Sucrose.
Where [25] appears, read: dried powder redispersed, HPC, dispersion agent Trehalose.
Setting [26] is: dried powder redispersed, HPC, dispersion agent Xylitol.

`O=C1CCc2cc(OCCCCc3nnnn3C3CCCCC3)ccc2N1` [Cilostazol raw material, cilostazol]: the Cmax in data set [1] (read-out: Cmax (maximum blood concentration)) was found to be 150 ± 80 ng/mL. Further, the AUC in data set [1] (samples to 7 hours, read-out: AUC (area under the blood drug concentration-time curve)) was determined as 580 ± 90 ng·h/mL.

Turning to `O=C1CCc2cc(OCCCCc3nnnn3C3CCCCC3)ccc2N1` [Cilostazol, cilostazol], the Average particle size in data set [2] stood at 170 nm; in data set [3] (setting [7]), 350 nm; in data set [3] (drying powder redispersed, Lactose 225 g, SLS 225 g), 360 nm; in data set [3] (setting [8]), 200 nm; in data set [3] (setting [9]), 340 nm; in data set [3] (setting [10]), 340 nm. In data set [3] (setting [11]), the Average particle size worked out at 190 nm. Also, the “Range of particle size” value in data set [2] (in nm) is 120~228. Moreover, the Particle size range D10 in data set [3] (setting [7]) is 230 nm; in data set [3] (setting [8]), 150 nm; in data set [3] (setting [9]), 230 nm; in data set [3] (setting [10]) it was 230 nm; in data set [3] (setting [11]), 140 nm; in data set [4] (drying powder redispersed), 240 nm. Moreover, the Particle size range D50 came to 340 nm in data set [3] (setting [7]); 200 nm in data set [3] (setting [8]); 340 nm in data set [3] (setting [9]); 180 nm in data set [3] (setting [11]); 350 nm in data set [4] (drying powder redispersed); 330 nm in data set [4] (slurry mixture redispersed after wet grinding). For the same compound, the Particle size range D90 in data set [3] (setting [7]) was 390 nm; in data set [3] (setting [8]), 270 nm; in data set [3] (setting [9]), 470 nm; in data set [3] (setting [10]) it was 470 nm; in data set [3] (setting [11]), 250 nm; in data set [4] (drying powder redispersed), 490 nm.

In the case of `COc1ccc2cc([C@H](C)C(=O)O)ccc2c1` [Naproxen, naproxen], the Average particle size in data set [5] (setting [12]) was 3,025 nm; in data set [5] (setting [13]) it was 500 nm; in data set [5] (setting [14]), 164 nm; in data set [5] (setting [15]) it was 391 nm; in data set [5] (setting [16]), 208 nm; in data set [5] (setting [17]), 16,800 nm. Besides, the Average particle size is on record as 156.9 nm in data set [5] (setting [18]); 192.4 nm in data set [5] (setting [19]); 275.8 nm in data set [5] (setting [20]); 164.1 nm in data set [5] (setting [21]); “about 164 nm” in data set [5] (dried powder redispersed in distilled water, surface stabilizer HPC, dispersion agent Lactose, listed as naproxen); 450 nm in data set [5] (setting [22]). The Average particle size worked out at 413.6 nm in data set [5] (setting [23]), 297.1 nm in data set [5] (setting [24]), 241.6 nm in data set [5] (setting [25]) and 637.9 nm in data set [5] (setting [26]). In addition, the “Particle Size (D10~D90)” value was 154~4,292 nm in data set [5] (setting [12]); 339~629 nm in data set [5] (setting [13]); 40~260 nm in data set [5] (setting [14]); 109~316 nm in data set [5] (setting [15]); 108~310 nm in data set [5] (setting [16]); 868.3~507.1 nm in data set [5] (setting [17]). The “Particle Size (D10~D90)” value in data set [5] (setting [18]) is given as 95.9~208.7 nm; in data set [5] (setting [19]), 120.8~250.3 nm; in data set [5] (setting [20]) it was 150.6~417.5 nm; in data set [5] (setting [21]), 40.3~259.6 nm; in data set [5] (setting [22]), 319.8~564.6 nm; in data set [5] (setting [23]), 280.4~532.7 nm. Moreover, the “Particle Size (D10~D90)” value in data set [5] (setting [24]) is reported as 192.9~393.9 nm; in data set [5] (setting [25]), 162.8~312.5 nm; in data set [5] (setting [26]), 291.3~675.9 nm. For the same compound, the “average particle size of naproxen particles” value in data set [5] (slurry mixture after wet grinding redispersed in distilled water, HPC, lactose) is recorded as “about 133 nm”.

As to `C=CC[C@@H]1/C=C(\C)C[C@H](C)C[C@H](OC)[C@H]2O[C@@](O)(C(=O)C(=O)N3CCCC[C@H]3C(=O)O[C@H](/C(C)=C/[C@@H]3CC[C@@H](O)[C@H](OC)C3)[C@H](C)[C@@H](O)CC1=O)[C@H](C)C[C@@H]2OC` [tacrolimus], the “Particle size according to the ultrasonic irradiation time” value is reported as 4,980 nm in data set [6] (surface stabilizer Hydroxyproply cellulose, 0 minute ultrasonic irradiation); 220 nm in data set [6] (surface stabilizer Hydroxyproply cellulose, 1 minute ultrasonic irradiation (39 kHz)); 510 nm in data set [6] (surface stabilizer Poloxamer 407, 0 minute ultrasonic irradiation); 420 nm in data set [6] (surface stabilizer Poloxamer 407, 1 minute ultrasonic irradiation (39 kHz)); 1,561 nm in data set [6] (surface stabilizer Polyvinylpyrrolidone, 0 minute ultrasonic irradiation); 610 nm in data set [6] (surface stabilizer Polyvinylpyrrolidone, 1 minute ultrasonic irradiation (39 kHz)).
